Test results reported in BindingDB's records for doi:10.1021/jm5008853 (University of Ferrara, 2014).

Test: Allosteric enhancer activity at human adenosine A1 receptor expressed in CHO cell membranes assessed as [3H]NECA affinity constant at 1 uM (Kd = 0.87 +/- 0.04 nM)

Structure (SMILES): CC(C)(C)Cc1c(C#Cc2ccccc2)sc(N)c1C(=O)c1ccc(Cl)cc1
- Kd: 0.46 nM
